A short description of experiment [1]: Selectivity ratio of binding affinity for alpha7 nAChR to alpha4beta2 nAChR.
The nature of experiment [2]: Selectivity ratio of binding affinity for alpha7 nAChR to muscle nAChR. In kind it is tissue-based. The note with it: Muscle tissue.
Experiment [3] is described as follows: Selectivity ratio of binding affinity for alpha7 nAChR to alpha3beta2.

The text below walks through data of ChEMBL document CHEMBL1240444, “Aconitum and Delphinium alkaloids of curare-like activity. QSAR analysis and molecular docking of alkaloids into AChBP” (Eur J Med Chem, 2010).

The structures appear in SMILES notation.

On to `CCN1C[C@]2(COC(=O)c3ccccc3N3C(=O)C[C@H](C)C3=O)CC[C@H](OC)[C@@]34[C@@H]5C[C@H]6[C@H](OC)[C@@H]5[C@](O)(C[C@@H]6OC)[C@](O)([C@@H](OC)[C@H]23)[C@@H]14`, for which the results for the Ratio in experiment [1], in experiment [2] and in experiment [3] were 1000, 10000 and 100, respectively.
